Data taken from patent publication US7217733B2, “ACE inhibitor derivatives” (priority 2003, dated 2007).
Counter-ions that a name gives are not always drawn.

Columns and labels:
[1] = target: T1, ACE (Mus musculus, UniProt P09470); experiment: Plasma ACE activity in CD1 mouse after i.v. dosing (FAPGG spectrophotometric method); assay type: in vivo; conditions: % vs basal condition
T1 construct: The plasma was stored at −20° C. until the ACE activity measurements; from tissue; host or cells: plasma of CD1 mice (heparinized blood from the vena cava)
T1 sequence (P09470 35-1237 limits assumed): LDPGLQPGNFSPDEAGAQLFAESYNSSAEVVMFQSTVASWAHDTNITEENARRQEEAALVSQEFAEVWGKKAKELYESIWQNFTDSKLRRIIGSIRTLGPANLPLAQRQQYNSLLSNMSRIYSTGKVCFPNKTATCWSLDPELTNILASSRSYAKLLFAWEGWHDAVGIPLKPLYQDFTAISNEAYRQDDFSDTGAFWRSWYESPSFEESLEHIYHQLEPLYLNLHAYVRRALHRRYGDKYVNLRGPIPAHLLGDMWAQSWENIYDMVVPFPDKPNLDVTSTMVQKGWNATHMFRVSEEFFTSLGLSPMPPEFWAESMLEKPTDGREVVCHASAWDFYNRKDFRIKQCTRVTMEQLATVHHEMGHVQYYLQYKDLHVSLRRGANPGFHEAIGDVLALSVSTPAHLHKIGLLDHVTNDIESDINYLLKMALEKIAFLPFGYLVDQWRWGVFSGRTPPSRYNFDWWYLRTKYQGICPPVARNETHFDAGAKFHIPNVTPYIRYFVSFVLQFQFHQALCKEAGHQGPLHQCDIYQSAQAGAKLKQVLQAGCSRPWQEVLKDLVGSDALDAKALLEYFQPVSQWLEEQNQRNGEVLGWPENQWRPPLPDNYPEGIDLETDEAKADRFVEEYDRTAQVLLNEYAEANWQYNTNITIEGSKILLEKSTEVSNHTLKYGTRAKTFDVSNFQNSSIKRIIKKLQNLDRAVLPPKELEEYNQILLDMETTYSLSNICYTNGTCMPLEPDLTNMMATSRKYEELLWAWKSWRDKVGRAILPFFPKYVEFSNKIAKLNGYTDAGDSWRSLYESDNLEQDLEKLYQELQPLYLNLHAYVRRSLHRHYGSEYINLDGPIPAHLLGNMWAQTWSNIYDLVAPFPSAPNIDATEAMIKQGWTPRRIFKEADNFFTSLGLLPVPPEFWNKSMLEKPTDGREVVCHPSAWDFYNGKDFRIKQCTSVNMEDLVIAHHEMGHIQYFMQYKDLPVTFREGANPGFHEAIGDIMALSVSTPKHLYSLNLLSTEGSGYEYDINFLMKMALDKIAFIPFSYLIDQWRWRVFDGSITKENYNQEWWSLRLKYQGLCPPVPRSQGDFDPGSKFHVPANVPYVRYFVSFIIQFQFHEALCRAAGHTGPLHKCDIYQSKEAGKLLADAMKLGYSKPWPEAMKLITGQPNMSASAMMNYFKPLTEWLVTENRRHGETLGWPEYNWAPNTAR
Method: CD1 mouse were treated i.v. with a single dose of 3 mg/Kg of enalapril and with a equimolar doses of enalapril nitroderivatives (compound of Ex. 3; 3.6 mg/Kg) and NO-ENA (3.92 mg/Kg). […] Heparinized blood samples were centrifuged at 1000 g for 20 min at 4° C. The plasma was stored at −20° C. until the ACE activity measurements. The ACE activity was determined by a spectrophotometric method (Sigma) based on the enzymatic reaction catalysed by ACE, where the FAPGG was hydrolysed to FAP. FAPGG hydrolysis produced a decrease in the absorbance at 340 nm, a marker of ACE activity in the sample.
The results, reported in Table 3, are expressed as % of ACE activity vs basal condition.

[2] = test system: isolated rabbit thoracic aorta preparations; experiment: Study on vascular tone: vasorelaxation of noradrenaline-precontracted aortic rings; assay type: cell-based; conditions: for IC50: Oryctolagus cuniculus, concentration giving 50% reversal of NA (1 μM) contraction, rabbit thoracic aorta rings with functional endothelium, read-out: IC50 (μM) ± sem
Method: The ability of ACE inhibitor nitroderivatives to induce vasorelaxation in comparison to native ACE inhibitors, was tested in vitro in isolated rabbit thoracic aorta preparations (Wanstall J. C. et al., Br. J. Pharmacol., 134:463–472, 2001). Male New Zealand rabbits were anaesthetized with thiopental-Na (50 mg/kg, iv), sacrificed by exsanguinations and then the thorax was opened and the aorta dissected. Single ring preparations (4 mm in length) of thoracic aorta were set up in physiological salt solution (PSS) at 37° C. in small organ chambers (5 ml). The composition of PSS was (mM): NaCl 130, NaHCO3 14.9, KH2PO4 1.2, MgSO4 1.2, HEPES 10, CaCl2, […] (95% O2/5% CO2; pH 7.4). Each ring was mounted under 2 g passive tension in 5 ml organ bath. Isometric tension was recorded with a Grass transducer (Grass FT03) attached to a BIOPAC MP150 System. Preparations were allowed to equilibrate for 1 h, then contracted submaximally with noradrenaline (NA, 1 μM) and, when the contraction was stable, acetylcholine (ACh, 10 μM) was added. A relaxant response to ACh indicated the presence of a functional endothelium. When a stable precontraction was reached, a cumulative concentration-response curve to either of the vasorelaxant agents was obtained in the presence of a functional endothelium. Time intervals between different concentrations were based on the time needed to reach a full response. Moreover, the effect of the soluble guanylyl cyclase inhibitor ODQ (1-H-(1,2,4)-oxadiazol(4,3-a)quinoxalin-1-one) on the dilator responses elicited by the compounds was examined preincubating the aortic rings with ODQ (10 μM) for 20 min. Responses to vasorelaxing agents were measured from the plateau of NA contraction. The IC50 (concentration giving 50% reversal of NA contraction) was interpolated from the plots of relaxant-response vs log molar concentration of tested compound.
IC50 is the concentration which inhibits 50% of the response.

[3] = test system: rats with renal mass reduction (RMR); experiment: Proteinuria and renal disease progression in rats with renal mass reduction (RMR); assay type: in vivo, rat; conditions: for effect on proteinuria (in words): repeated oral treatment, at 3 months
Method: Sprague-Dawley rats underwent right nephrectomy and ligation of two or tree branches of the main renal artery according to Olson et al. (1982). […] A group of sham operated rats was also included (Sham). Urinary protein excretion measurements were performed before the treatment and every month thereafter. Twenty-four hour urine samples were collected using metabolic cages and proteinuria was determined by the modified Coomassie Blu G dye-binding assay for the proteins with bovine serum albumin as standard.

[4] = test system: L-NAME-induced hypertension in rats; experiment: L-NAME-induced hypertension in rats; assay type: in vivo, rat; conditions: for Systolic blood pressure (mmHg): 2 hours after administration, equimolar doses, basal 140
Method: Male Wistar rats weighing 225–250 g were used. The rats were divided into two groups. Under halothane anesthesia, radiotelemetry probes were inserted into descending aorta to measure systolic blood pressure (SBP). Baseline blood pressure was recovered (103 mmHg). Both groups were then provided with drinking water supplemented with L-NAME (400 mg/L) for 7 days to induce hypertension. After this treatment all the animals have a SBP of about 140 mmHg. The rats were then treated orally each day with enalapril or an equimolar dose of enalapril-nitroderivative (compound Ex. 3). Blood pressure recordings were made 2 hours after drug administration. The study was continued over three days period of drug administration.

[5] = test system: SHR rats; experiment: Hypotensive properties in SHR rats; assay type: in vivo, rat; conditions: i.v. bolus injection of equimolar doses, conscious SHR rats
Method: After at least 5 days after surgical catheterization of the arterial and venous femoral, conscious old (>9 months) male SHR rats were injected iv bolus with Enalapril, compound of Ex. 3 (equimolar doses) and vehicle (saline) (0.0335 mL/100 g body weight). Blood pressure and heart rate were recorded before (control period 1 h) and after IV bolus administration for up to 4 h.

[6] = NO release (NOx formation) in rat plasma; assay type: in vitro ADME; conditions: 250 μM, up to 240 min
Method: Rat blood was freshly collected with Na-heparin as anticoagulant from male Sprague Dawley rats weighing about 300–330 g. Blood was immediately centrifuged to obtain plasma. Plasma was incubated for up to 240 min at 37° C. in presence of either compound of Ex. 3 (250 μM) or of NO-ENA (250 μM). At fixed times points samples were withdrawn from the incubation and NOx (nitrites+nitrates), the oxidative products of NO, were determined by GPC (gas phase chemiluminescence).

[7] = 15 min after single i.v. dose equimolar to 3 mg/Kg enalapril
[8] = 30 min after single i.v. dose equimolar to 3 mg/Kg enalapril
[9] = 1 h after single i.v. dose equimolar to 3 mg/Kg enalapril
[10] = 3 hs after single i.v. dose equimolar to 3 mg/Kg enalapril
[11] = 6 hs after single i.v. dose equimolar to 3 mg/Kg enalapril
[12] = 24 hs after single i.v. dose equimolar to 3 mg/Kg enalapril
[13] = 3rd month of daily oral treatment, Compound of Ex. 3 50 mg/kg, enalapril 7.5 mg/kg
[14] = 21 days after renal ablation, before the treatment
[15] = Basal (before renal ablation and treatment)

Row | SMILES | ACE Activity (% of activity) [1, 7] | ACE Activity (% of activity) [1, 8] | ACE Activity (% of activity) [1, 9] | ACE Activity (% of activity) [1, 10] | ACE Activity (% of activity) [1, 11] | ACE Activity (% of activity) [1, 12] | IC50 [2] | Proteinuria (mg/day) ± sem [3, 13] | Proteinuria (mg/day) ± sem [3, 14] | Proteinuria (mg/day) ± sem [3, 15] | effect on proteinuria (in words) [3] | Systolic blood pressure (mmHg) ([4]; 1st day of oral treatment) | Systolic blood pressure (mmHg) ([4]; 2nd day of oral treatment) | Systolic blood pressure (mmHg) ([4]; 3rd day of oral treatment) | effects on L-NAME-induced hypertension compared with enalapril (in words) ([4]; oral, equimolar dose) | decrease in blood pressure compared with enalapril (in words) [5] | NO-release rate compared with NO-ENA (in words) [6] | relaxation of NA-contracted aortic rings (in words) ([2]; cumulative concentration-response curve)
1 | CCOC(=O)[C@H](CCc1ccccc1)N[C@@H](C)C(=O)N1CCC[C@H]1C(=O)Oc1cccc(CO[N+](=O)[O-])c1.O=C(O)/C=C\C(=O)O [NO-ENA, enalapril 3-(nitrooxymethyl)phenyl ester maleate] | 5.4% | 4.8% | 9.3% | 23.6% | 55.2% | 90.1% |  |  |  |  |  |  |  |  |  |  |  | 
2 | C[C@H](N[C@@H](CCc1ccccc1)C(=O)OCCCO[N+](=O)[O-])C(=O)N1CCC[C@H]1C(=O)O [Compound of Ex. 1, N-[(1S)-1-(3-nitrooxypropoxycarbonyl)-3-phenylpropyl]-L-alanyl-L-proline hydrochloride] |  |  |  |  |  |  | 21.9 ± 6.9 µM |  |  |  |  |  |  |  |  |  |  | 
3 | CCOC(=O)[C@H](CCc1ccccc1)N[C@@H](C)C(=O)N1CCC[C@H]1C(=O)OCCCO[N+](=O)[O-].O=C(O)/C=C\C(=O)O [Compound of Ex. 3, N-[(1S)-1-(Ethoxycarbonyl)-3-phenylpropyl]-L-alanyl-L-proline 3-nitrooxypropyl ester hydrogen maleate] | 2.9% | 3.7% | 4.1% | 11.1% | 49.2% | 83.55% | 30.9 ± 8.4 µM | 163.9 mg/day | 76.5 ± 20.3 mg/day | 17.5 ± 1.3 mg/day | reduced proteinuria at 3 months | 120 mmHg | 117 mmHg | 115 mmHg | superior to those of enalapril | higher decrease in blood pressure than enalapril | much slower than the NO-release of NO-ENA | 
4 | CCOC(=O)[C@H](CCc1ccccc1)N[C@@H](C)C(=O)N1CCC[C@H]1C(=O)O [Enalapril] | 4.8% | 5.1% | 7.3% | 19.6% | 50.8% | 100% | > 100 µM | 290.5 ± 43.2 mg/day | 72.4 ± 18.3 mg/day | 15.7 ± 1.2 mg/day | only a marginal effect | 128 mmHg | 125 mmHg | 120 mmHg |  |  |  | did not produce relaxation at any of the concentration tested
